The values below come from patent publication US7235557B2, “Compounds and their uses” (MGI GP, Inc., priority 2000, dated 2007).

The structures appear in SMILES notation.

T1 sequence (P09874 whole entry): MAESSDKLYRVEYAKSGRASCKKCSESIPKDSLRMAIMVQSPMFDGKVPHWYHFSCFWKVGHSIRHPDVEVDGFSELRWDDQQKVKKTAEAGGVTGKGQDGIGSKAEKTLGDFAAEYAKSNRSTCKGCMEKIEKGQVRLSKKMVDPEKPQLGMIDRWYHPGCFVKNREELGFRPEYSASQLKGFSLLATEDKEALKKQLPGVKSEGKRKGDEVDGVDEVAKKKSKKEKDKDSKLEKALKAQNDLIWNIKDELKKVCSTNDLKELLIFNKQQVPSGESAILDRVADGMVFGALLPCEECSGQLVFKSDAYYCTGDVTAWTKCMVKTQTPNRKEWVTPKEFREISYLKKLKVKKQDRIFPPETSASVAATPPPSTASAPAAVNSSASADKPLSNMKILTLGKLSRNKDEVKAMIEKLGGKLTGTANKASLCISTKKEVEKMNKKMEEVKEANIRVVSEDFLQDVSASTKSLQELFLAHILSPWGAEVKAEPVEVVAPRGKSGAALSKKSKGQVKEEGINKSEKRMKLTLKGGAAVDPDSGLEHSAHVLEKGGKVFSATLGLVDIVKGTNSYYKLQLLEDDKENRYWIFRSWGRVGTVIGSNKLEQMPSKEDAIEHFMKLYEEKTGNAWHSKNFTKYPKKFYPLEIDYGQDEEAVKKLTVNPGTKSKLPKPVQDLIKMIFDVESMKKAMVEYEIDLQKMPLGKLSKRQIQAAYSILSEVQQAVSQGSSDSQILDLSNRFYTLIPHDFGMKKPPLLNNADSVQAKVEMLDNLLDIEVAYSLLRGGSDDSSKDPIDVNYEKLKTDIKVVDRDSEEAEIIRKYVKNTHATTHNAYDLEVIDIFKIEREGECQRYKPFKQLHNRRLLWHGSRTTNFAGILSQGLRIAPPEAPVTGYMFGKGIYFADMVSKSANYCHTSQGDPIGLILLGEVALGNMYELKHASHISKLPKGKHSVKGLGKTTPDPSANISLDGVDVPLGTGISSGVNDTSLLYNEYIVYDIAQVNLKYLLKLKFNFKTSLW

The first assay has as its target T1, purified recombinant human PARP (Homo sapiens, UniProt P09874).
T1 construct: purchased Trevigan (Gaithersburg, Md.)
As to the kind of experiment: PARP enzyme assay (IC50). The class given is biochemical. The note with it: IC50 (μM), approximate IC50 values, [3H]NAD. Here is the method:
The reaction is initiated by adding enzyme and incubating the mixture at 25° C. After 2 minutes of incubation, the reaction is terminated by adding 500 microliters of ice cold 30% (w/v) trichloroacetic acid. The precipitate formed is transferred onto a glass fiber filter Packard Unifilter-GF/C) and washed three times with 70% ethanol. After the filter is dried, the radioactivity is determined by scintillation counting.
For the compound `CN(Cc1ccccc1)Cc1nc2cccc3c2n1CCNC3=O` [drawing 162], the IC50 was 0.088 µM.
`Cc1nc2cccc3c2n1CCNC3=O`: the IC50 was 0.141 µM.
With `CN(Cc1ccccc1)Cc1nc2cccc3c2n1CCNC3=O` [drawing 179], the IC50 is 0.166 µM.

Staying with this assay, now noted: approximate IC50 values, [3H]NAD, read-out: IC50.
For `O=C1NCCn2c(CN3CCOCC3)nc3cccc1c32`, the IC50 is 0.523 µM.
As for `O=C(O)c1cccc(-c2nc3cccc4c3n2CCNC4=O)c1`, the IC50 came out at 0.155 µM.
Still for that read-out and setting: the result for `Cn1c(-c2ccccc2)c2c3c(cccc31)C(=O)NCC2=O` reads 0.058 µM.
For `O=C1NCCn2c(CN3CCCCC3)nc3cccc1c32`, the IC50 was determined as 0.801 µM.
For the compound `O=C1NCCn2c(-c3ccccc3F)nc3cccc1c32`, the IC50 was found to be 0.329 µM.
Take `CC(C)N1CCN(c2ccc3[nH]c(=O)c4ccccc4c3n2)CC1`: the concentration for half-maximal inhibition (IC50) was determined as 0.179 µM.
Take `CN1CCN(Cc2nc3cccc4c3n2CCNC4=O)CC1`: the concentration for half-maximal inhibition (IC50) was 1.57 µM.
On the same count and under the same terms, the result for `CN(C)CC(=O)Nc1ccc2[nH]c(=O)c3ccccc3c2n1` reads 0.098 µM; that for `O=C1NCCn2c(-c3ccc([N+](=O)[O-])o3)nc3cccc1c32`, 0.021 µM.
Same read-out and setting: next, `O=C1NCC(c2ccc(F)cc2)c2c[nH]c3cccc1c23` (stereo not drawn): 0.427 µM; `O=C1NCCn2c(CN3CCCCC3CO)nc3cccc1c32` (stereo not drawn): 0.337 µM.
On the same count and under the same terms, the result for `CC(C)(C)OC(=O)n1cc2c3c(cccc31)C(=O)NN=C2` reads 1.2 µM; that for `CC(C)(C)OC(=O)n1cc2c3c(cccc31)C(=O)NCC2`, 20 µM.
Regarding `CCN1CCN(CC2=NNC(=O)c3cccc4[nH]cc2c34)CC1`, the IC50 was found to be 0.06 µM.
Same read-out and setting: the result for `O=C1NCCn2c(CN3CCN(Cc4ccc5c(c4)OCO5)CC3)nc3cccc1c32` reads 0.12 µM; that for `O=c1[nH]c2ccc(O)nc2c2ccccc12`, 0.114 µM.
Same read-out and setting: the result for `CN(C)CC(=O)Nc1cnc2c(c1)[nH]c(=O)c1ccccc12` reads 0.165 µM; that for `O=c1[nH]c2ccc(N3CCNCC3)nc2c2ccccc12`, 0.045 µM.
On to `Nc1cnc2c(c1)[nH]c(=O)c1ccccc12`, for which the half-maximal inhibitory concentration (IC50) was determined as 0.18 µM.
Same read-out and setting: the result for `O=C1NCCn2c(COCc3ccccc3)nc3cccc1c32` reads 0.434 µM; that for `O=C1NN=C(CN2CCCCC2)c2c[nH]c3cccc1c23`, 0.027 µM.
Still for that read-out and setting: next, `O=C1NCCn2c(C#Cc3ccccc3)nc3cccc1c32`: 0.044 µM; `O=C1NCCn2c(O)nc3cccc1c32`: 1.4 µM; `CC(Cc1nc2cccc3c2n1CCNC3=O)c1ccccc1` (stereo not drawn): 0.13 µM.
On the same count and under the same terms, next, `O=C1NN=C(CN2CCN(c3ccccn3)CC2)c2c[nH]c3cccc1c23` [drawing 106]: 0.037 µM; `O=C1NN=Cc2c[nH]c3cccc1c23`: 0.018 µM; `O=C1NCCn2c(-c3cccnc3)nc3cccc1c32`: 0.168 µM.
Regarding `O=C1NCCn2cnc3cccc1c32`, the concentration for half-maximal inhibition (IC50) turned out to be 0.299 µM.
Still for that read-out and setting: the result for `O=C1NCCn2c(-c3ccc(F)cc3)nc3cccc1c32` reads 0.201 µM.
Same read-out and setting: next, `O=C1NCCn2c(-c3cccc(Cl)c3)nc3cccc1c32`: 0.08 µM.
As for `O=C1NN=Cn2cnc3cccc1c32`, the IC50 was 20 µM.
Same read-out and setting: the result for `O=C(CN1CCC(N2CCCC2)CC1)Nc1cnc2c(c1)[nH]c(=O)c1ccccc12` reads 0.134 µM.
The same measure, in the same setting: the result for `COC1CNC(=O)c2cccc3c2c1cn3C` (stereo not drawn) reads 4.6 µM.
As for `O=C1NCCn2c(-c3ccc(-c4ccc(Cl)cc4)o3)nc3cccc1c32`, the IC50 was determined as 0.96 µM.
Regarding `O=C1NCCn2ccc3cccc1c32`, the half-maximal inhibitory concentration (IC50) was 0.7 µM.
Still for that read-out and setting: next, `CN(CCC1CCCN1C)C(=O)c1cccc(-c2nc3cccc4c3n2CCNC4=O)c1` (stereo not drawn): 1.24 µM; `CN1CCN(CC2=NNC(=O)c3cccc4[nH]cc2c34)CC1`: 0.037 µM; `Cn1c(-c2ccccc2)c2c3c(cccc31)C(=O)NN=C2`: 0.047 µM.
The same measure, in the same setting: the result for `O=c1[nH]c2ccc(OCc3ccccc3)nc2c2ccccc12` reads 20 µM; that for `O=C1NCCn2c(C=C(c3ccccc3)c3ccccc3)nc3cccc1c32`, 0.33 µM.
For `O=C1NN=C(CN2CCC(N3CCCC3)CC2)c2c[nH]c3cccc1c23`, the 50% inhibitory concentration (IC50) was 0.098 µM.
Same read-out and setting: next, `CN(C)CCN(C)CC1=NNC(=O)c2cccc3[nH]cc1c23`: 0.035 µM.
Same read-out and setting: the result for `O=C1NN=C(c2ccccc2)c2c[nH]c3cccc1c23` reads 0.021 µM.
Still for that read-out and setting: the result for `COC(=O)C1CN(Cc2nc3cccc4c3n2CCNC4=O)CCC1=O` (stereo not drawn) reads 0.441 µM; that for `O=C(O)c1ccc(-c2nc3cccc4c3n2CCNC4=O)cc1`, 1.19 µM.
As to `O=C1NC=Cc2c[nH]c3cccc1c23`, the IC50 stood at 0.161 µM.
On the same count and under the same terms, next, `CCN(CC)CCNC(=O)c1cccc(-c2nc3cccc4c3n2CCNC4=O)c1`: 0.449 µM.
`CCN(CC)CCCNC(=O)c1cccc(-c2nc3cccc4c3n2CCNC4=O)c1`: the IC50 came out at 0.179 µM.
With `Cc1cccc(-c2nc3cccc4c3n2CCNC4=O)c1`, the half-inhibitory concentration (IC50) was 0.097 µM.
With `O=C1NCCn2c(-c3ccc4ccccc4n3)nc3cccc1c32`, the IC50 is 0.299 µM.
As for `CN(Cc1nc2cccc3c2n1CCNC3=O)C1CCCCC1`, the IC50 amounted to 0.46 µM.
The same measure, in the same setting: the result for `O=C1NN=Cc2c(-c3ccccc3)[nH]c3cccc1c23` reads 0.01 µM.
Take `O=C1NCCn2c(CN3CCCCCCC3)nc3cccc1c32`: the half-maximal inhibitory concentration (IC50) is 0.6 µM.
Same read-out and setting: the result for `Nc1ccc(C2CNC(=O)c3cccc4[nH]cc2c34)cc1` (stereo not drawn) reads 0.172 µM.
Turning to `O=C1NCCn2c(-c3ccc(-c4cccc(Cl)c4)o3)nc3cccc1c32`, the IC50 was 0.2 µM.
Still for that read-out and setting: the result for `COc1ccc(/C=C/c2nc3cccc4c3n2CCNC4=O)cc1` reads 0.142 µM.
Consider `O=C1NCCn2c(-c3cccc(Br)c3)nc3cccc1c32`, for which the half-maximal inhibitory concentration (IC50) was found to be 0.106 µM.
For `O=C1NC=C(Br)c2c[nH]c3cccc1c23`, the half-inhibitory concentration (IC50) was found to be 0.061 µM.
As for `O=C1NCCn2c(CN(CCc3ccccc3)Cc3ccccc3)nc3cccc1c32`, the IC50 is 10.5 µM.
Take `COc1ccc2c(c1)c(=O)[nH]c1cccnc12`: the 50% inhibitory concentration (IC50) was 4.15 µM.
The same measure, in the same setting: the result for `O=C(CN1CCC(N2CCCC2)CC1)Nc1ccc2[nH]c(=O)c3ccccc3c2n1` reads 0.142 µM.
Consider `O=C1NN=C(CN2CCCC2)c2c[nH]c3cccc1c23`, for which the IC50 was found to be 0.033 µM.
The same measure, in the same setting: the result for `O=C1NN=C(Cc2ccccc2)c2c[nH]c3cccc1c23` reads 0.064 µM; that for `Cn1cc2c3c(cccc31)C(=O)NN=C2`, 0.146 µM; that for `CCCCCCN(CCCCCC)Cc1nc2cccc3c2n1CCNC3=O`, 0.915 µM.
Regarding `COC(=O)C1CN(C(=O)c2cccc(-c3nc4cccc5c4n3CCNC5=O)c2)CCC1=O` (stereo not drawn), the IC50 amounted to 0.375 µM.
For `O=C1NN=Cc2c(-c3ccc(F)cc3)[nH]c3cccc1c23`, the concentration for half-maximal inhibition (IC50) came to 0.073 µM.
Turning to `Cn1cc2c3c(cccc31)C(=O)NCC2=O`, the IC50 was 0.028 µM.
Same read-out and setting: next, `CCCN(CCC)Cc1nc2cccc3c2n1CCNC3=O`: 0.204 µM; `CN(Cc1nc2cccc3c2n1CCNC3=O)c1ccccc1`: 0.28 µM.
Still for that read-out and setting: next, `CC(C)(C)OC(=O)[C@@H]1CCCN1Cc1nc2cccc3c2n1CCNC3=O`: 0.349 µM.
Same read-out and setting: next, `O=C1NN=C(CN2CCN(Cc3ccccc3)CC2)c2c[nH]c3cccc1c23`: 0.141 µM; `O=C(NCCN1CCCCC1)c1cccc(-c2nc3cccc4c3n2CCNC4=O)c1`: 0.376 µM; `O=C1NCCn2c(CN3CCN(c4ccccc4)CC3)nc3cccc1c32`: 1.9 µM.
For `CC(=O)OCc1ccc(-c2nc3cccc4c3n2CCNC4=O)o1`, the 50% inhibitory concentration (IC50) was found to be 0.068 µM.
Turning to `COCc1nc2cccc3c2n1CCNC3=O`, the 50% inhibitory concentration (IC50) is 0.227 µM.
On the same count and under the same terms, the result for `O=C1NCCn2c(/C=C/c3ccccc3)nc3cccc1c32` reads 0.071 µM; that for `O=C1NN=Cc2c(Br)[nH]c3cccc1c23`, 0.026 µM; that for `O=C1NCCc2c(Br)[nH]c3cccc1c23`, 0.051 µM.
Still for that read-out and setting: next, `O=C(NCCN1CCCC1)c1cccc(-c2nc3cccc4c3n2CCNC4=O)c1`: 0.321 µM; `O=c1[nH]c2ccc(NCCN3CCOCC3)nc2c2ccccc12`: 0.339 µM.
In the case of `O=C1NN=Cc2c(Br)n(Cc3ccccc3)c3cccc1c23`, the IC50 amounted to 20 µM.
Same read-out and setting: next, `O=C1NCCn2c(CN3CCN(Cc4ccccc4)CC3)nc3cccc1c32`: 2.19 µM; `O=C1NCCn2c(-c3cc(O)c(O)c(O)c3)nc3cccc1c32`: 0.324 µM; `O=C1NCCn2c(Cn3ccnc3)nc3cccc1c32`: 0.738 µM.
Regarding `COc1cc2c(cc1OC)CN(Cc1nc3cccc4c3n1CCNC4=O)CC2`, the IC50 worked out at 0.713 µM.
The same measure, in the same setting: next, `CC(C)(C)OC(=O)N1CCN(Cc2nc3cccc4c3n2CCNC4=O)CC1`: 0.266 µM; `O=c1[nH]c2cc(Cl)cnc2c2ccccc12`: 0.292 µM; `O=C1NCCn2c(-c3cccc(C(=O)N4CC5CC4CN5Cc4ccccc4)c3)nc3cccc1c32` (stereo not drawn): 0.405 µM.
Regarding `O=c1[nH]c2ccc(Cl)nc2c2ccccc12`, the half-maximal inhibitory concentration (IC50) was 2.1 µM.
Still for that read-out and setting: the result for `CN(C)CCCN(C)C(=O)c1cccc(-c2nc3cccc4c3n2CCNC4=O)c1` reads 0.199 µM.
Still for that read-out and setting: the result for `O=C1NCCn2c(CN3CC4CC3CN4Cc3ccccc3)nc3cccc1c32` (stereo not drawn) reads 0.115 µM; that for `CN(C)CCN(C)Cc1nc2cccc3c2n1CCNC3=O`, 0.288 µM.
Same read-out and setting: the result for `O=C1NN=C(CN2CCOCC2)c2c[nH]c3cccc1c23` reads 0.037 µM; that for `Cn1cc(-c2nc3cccc4c3n2CCNC4=O)c2ccccc21`, 0.268 µM.
Consider `O=c1[nH]c2ccc(N3CCN(CC4CCCO4)CC3)nc2c2ccccc12` (stereo not drawn), for which the half-maximal inhibitory concentration (IC50) was 0.179 µM.
Take `CN(C)CCCN(C)Cc1nc2cccc3c2n1CCNC3=O`: the IC50 amounted to 0.473 µM.
Consider `O=C1NCCn2c(CN3CCCCCC3)nc3cccc1c32`, for which the IC50 amounted to 1 µM.
`CC(C)N1CCN(CC(=O)Nc2cnc3c(c2)[nH]c(=O)c2ccccc23)CC1`: the concentration for half-maximal inhibition (IC50) stood at 0.086 µM.
Regarding `CCCCCN(CCCCC)Cc1nc2cccc3c2n1CCNC3=O`, the IC50 is 0.915 µM.
As for `CCN(CC)Cc1nc2cccc3c2n1CCNC3=O`, the IC50 was 0.535 µM.
Same read-out and setting: next, `O=C1NCCn2c(CN3CCCc4ccccc43)nc3cccc1c32`: 0.818 µM.

Usually IC50 stands for the concentration that gives 50% inhibition.
